Values of other authors, collected in US20040101478A1, “In vivo methods of determining activity of receptor-type kinase inhibitors” (priority 2003, published 2004).

Target: KDR kinase (Homo sapiens, UniProt P35968)
Details: Kasahara et al., 2000, J. Clin. Invest. 106: 1311-1319; cited from earlier work

Chain of KDR kinase (P35968 20-1356): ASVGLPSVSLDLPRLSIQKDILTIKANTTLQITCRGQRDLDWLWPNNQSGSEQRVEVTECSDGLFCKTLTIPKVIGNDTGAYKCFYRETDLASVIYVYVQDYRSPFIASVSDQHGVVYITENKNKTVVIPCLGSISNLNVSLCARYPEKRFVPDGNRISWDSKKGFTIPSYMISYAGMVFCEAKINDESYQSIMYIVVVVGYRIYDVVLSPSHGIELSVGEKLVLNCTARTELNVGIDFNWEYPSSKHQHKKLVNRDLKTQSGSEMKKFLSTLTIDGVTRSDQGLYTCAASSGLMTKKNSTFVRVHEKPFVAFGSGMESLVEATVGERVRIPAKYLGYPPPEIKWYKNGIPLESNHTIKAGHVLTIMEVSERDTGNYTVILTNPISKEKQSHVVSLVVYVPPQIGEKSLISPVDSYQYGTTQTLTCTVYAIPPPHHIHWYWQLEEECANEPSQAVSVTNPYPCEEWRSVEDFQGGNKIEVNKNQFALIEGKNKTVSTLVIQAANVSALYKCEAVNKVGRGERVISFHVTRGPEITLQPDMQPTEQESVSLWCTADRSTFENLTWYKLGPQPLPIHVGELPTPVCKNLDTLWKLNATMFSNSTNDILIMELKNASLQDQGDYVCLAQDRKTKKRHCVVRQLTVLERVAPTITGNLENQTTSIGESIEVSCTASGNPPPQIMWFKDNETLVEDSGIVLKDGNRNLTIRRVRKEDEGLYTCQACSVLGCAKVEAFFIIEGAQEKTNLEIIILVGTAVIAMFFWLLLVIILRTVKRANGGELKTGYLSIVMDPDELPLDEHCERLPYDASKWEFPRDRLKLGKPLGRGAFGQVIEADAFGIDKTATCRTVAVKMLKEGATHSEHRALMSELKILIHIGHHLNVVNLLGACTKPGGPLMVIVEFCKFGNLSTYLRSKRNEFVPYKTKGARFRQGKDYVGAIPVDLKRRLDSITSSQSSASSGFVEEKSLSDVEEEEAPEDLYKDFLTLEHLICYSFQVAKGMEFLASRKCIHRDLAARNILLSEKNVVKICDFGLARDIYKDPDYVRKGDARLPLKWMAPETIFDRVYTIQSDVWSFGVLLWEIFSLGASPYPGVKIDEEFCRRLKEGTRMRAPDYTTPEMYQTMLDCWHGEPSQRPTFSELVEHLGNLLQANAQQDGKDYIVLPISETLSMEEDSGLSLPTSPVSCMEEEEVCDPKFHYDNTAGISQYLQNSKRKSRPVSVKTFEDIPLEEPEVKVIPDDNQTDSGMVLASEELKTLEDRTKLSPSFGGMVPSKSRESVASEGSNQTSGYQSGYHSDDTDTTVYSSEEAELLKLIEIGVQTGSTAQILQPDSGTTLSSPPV

For `Cc1cc(C)c(/C=C2\C(=O)Nc3ccccc32)[nH]1` [SU5416], the “inhibition of VEGF-induced phosphorylation” value is given as “inhibition of VEGF-induced phosphorylation”.
